The values that follow come from publication PMC11568248, “Targeting Candida albicans O-acetyl-L-homoserine sulfhydrylase (Met15p) in antifungal treatment” (Scientific Reports, 2024).

The target of data set [1] is T1, CaMet15NHp (Candida albicans, UniProt Q59US5).
T1 construct: gene MET15; mostly homotetramer
T1 sequence (Q59US5 2-440): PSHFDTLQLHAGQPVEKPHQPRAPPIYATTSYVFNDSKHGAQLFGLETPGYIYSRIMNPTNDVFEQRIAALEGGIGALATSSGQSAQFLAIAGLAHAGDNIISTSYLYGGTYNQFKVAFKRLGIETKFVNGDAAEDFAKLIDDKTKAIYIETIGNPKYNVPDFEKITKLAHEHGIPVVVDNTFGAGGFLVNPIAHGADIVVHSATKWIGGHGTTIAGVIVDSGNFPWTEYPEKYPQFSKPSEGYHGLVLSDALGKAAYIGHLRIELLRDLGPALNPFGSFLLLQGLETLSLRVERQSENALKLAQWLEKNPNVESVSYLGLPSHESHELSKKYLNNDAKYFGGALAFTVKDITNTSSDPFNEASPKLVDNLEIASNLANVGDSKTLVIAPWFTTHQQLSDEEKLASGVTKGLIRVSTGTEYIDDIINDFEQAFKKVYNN
Kind of data set: RP-HPLC-DAD of L-homocysteine derivatized with DTNB. Format: biochemical. The note with it: substrates OAH and Na2S, 0.2 mM PLP, pH 8.0, 37 °C; racemate.

Data set [2] concerns the target T1, CaMet15NHp. The description is as above. Format: biochemical. As to conditions: read-out: % inhibition at 10 mM.
The test system of the next data set is S. Kind of data set: purified protein. As to conditions: O-acetyl-L-homoserine co-substrate, 0.2 mM PLP, 50 mM Tris-HCl pH 8.0, 100 mM NaCl, 37 °C, sulfide ion donor.
Substrate in the data set “purified protein”: CC(=O)OCC[C@H](N)C(=O)O
Description: purified protein. The note with it: Na2S co-substrate, 0.2 mM PLP, 50 mM Tris-HCl pH 8.0, 100 mM NaCl, 37 °C.

Broadly, the inhibition is the relative decrease from the control value, in per cent. As a reminder, the Km is the concentration of substrate that gives half-maximal velocity.

As for `C=CCC(N)C(=O)O` (racemic) [DL-ALG, DL-2-allylglycine], the “% inhibition at 10 mM” value on CaMet15NHp [1] was “DL-2-allyglycine (DL-ALG), and DL-glufosinate (DL-GLUF) were slightly inhibitory”. Still for that read-out and setting: the entry for `CP(=O)(O)CCC(N)C(=O)O` (racemic) [DL-GLUF, DL-glufosinate] is “DL-2-allyglycine (DL-ALG), and DL-glufosinate (DL-GLUF) were slightly inhibitory”. Turning to `CC(=O)NCC[C@H](N)C(=O)O` [AcDAB, N[4]-acetyl-(S)−2,4-diaminobutanoic acid], the inhibition at 10000 µM on CaMet15NHp [2] is roughly 70%. The same measure, in the same setting: with `N[C@@H](CCNC(=O)c1ccccc1)C(=O)O` [BzDAB, 3-benzamido-1-carboxypropan-1-aminium chloride] the figure was roughly 44%; with `CSCC[C@H](N)C(=O)O` [L-Met, L-methionine], less than 15%. On the same count and under the same terms, with `CC(C)(S)[C@H](N)C(=O)O` [L-PEN, L-penicillamine] the figure was greater than 50%. In the case of CaMet15NHp (Candida albicans SC5314), the Km in the data set with S came out at 0.027 ± 0.0021 mM.

B1: CaMet15NHp (Candida albicans SC5314) (protein)
chain: PSHFDTLQLHAGQPVEKPHQPRAPPIYATTSYVFNDSKHGAQLFGLETPGYIYSRIMNPTNDVFEQRIAALEGGIGALATSSGQSAQFLAIAGLAHAGDNIISTSYLYGGTYNQFKVAFKRLGIETKFVNGDAAEDFAKLIDDKTKAIYIETIGNPKYNVPDFEKITKLAHEHGIPVVVDNTFGAGGFLVNPIAHGADIVVHSATKWIGGHGTTIAGVIVDSGNFPWTEYPEKYPQFSKPSEGYHGLVLSDALGKAAYIGHLRIELLRDLGPALNPFGSFLLLQGLETLSLRVERQSENALKLAQWLEKNPNVESVSYLGLPSHESHELSKKYLNNDAKYFGGALAFTVKDITNTSSDPFNEASPKLVDNLEIASNLANVGDSKTLVIAPWFTTHQQLSDEEKLASGVTKGLIRVSTGTEYIDDIINDFEQAFKKVYNN
On to B1, for which the Km in “purified protein” stood at 9.12 ± 1.77 mM.
